From ChEMBL document CHEMBL1201862, “PubChem BioAssay data set” (2004)
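Results reflect a 48-hour exposure of cells in 96-well plates to compound at five concentrations. GI50: concentration for 50% inhibition of growth.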 The source made the active and inactive calls. Cut-off read from the data, not from the text of the source: active = GI50 up to about 1.1 µM and inactive = higher.

Legend:
Test in all cases: NCI tumour cell line growth inhibition, 48 h
OVCAR-4 = test system: OVCAR-4
SK-OV-3 = test system: SK-OV-3
SNB-75 = test system: SNB-75
SNB-78 = test system: SNB-78
SF-295 = test system: SF-295
NCI-H460 = test system: NCI-H460
CAKI-1 = test system: CAKI-1
A549 = test system: A549
HOP-62 = test system: HOP-62
NCI-H226 = test system: NCI-H226
A498 = test system: A498
MOLT-4 = test system: MOLT-4
U-251 = test system: U-251
UACC-257 = test system: UACC-257
RXF 393 = test system: RXF 393
RPMI-8226 = test system: RPMI-8226
HL-60 = test system: HL-60
M14 = test system: M14
NCI-H23 = test system: NCI-H23
SNB-19 = test system: SNB-19
DMS-114 = test system: DMS-114
RXF 631 = test system: RXF 631
HOP-18 = test system: HOP-18
SF-268 = test system: SF-268
HT-29 = test system: HT-29
HCT-116 = test system: HCT-116
SK-MEL-5 = test system: SK-MEL-5
KM12 = test system: KM12
SK-MEL-28 = test system: SK-MEL-28
OVCAR-5 = test system: OVCAR-5
ACHN = test system: ACHN
HOP-92 = test system: HOP-92
HCT-15 = test system: HCT-15
786-0 = test system: 786-0
SN12C = test system: SN12C
SR = test system: SR
SK-MEL-2 = test system: SK-MEL-2
Malme-3M = test system: Malme-3M
LXFL 529 = test system: LXFL 529
HCC 2998 = test system: HCC 2998
DLD-1 = test system: DLD-1
LOX IMVI = test system: LOX IMVI
TK-10 = test system: TK-10
XF498 = test system: XF498
SW-620 = test system: SW-620
NCI-H522 = test system: NCI-H522
SF-539 = test system: SF-539
KM-20L2 = test system: KM-20L2
K562 = test system: K562
UO-31 = test system: UO-31
EKVX = test system: EKVX
IGROV-1 = test system: IGROV-1
COLO 205 = test system: COLO 205
CCRF-CEM = test system: CCRF-CEM
DMS-273 = test system: DMS-273
UACC-62 = test system: UACC-62
OVCAR-3 = test system: OVCAR-3
M19-MEL = test system: M19-MEL
OVCAR-8 = test system: OVCAR-8

## CN(C)c1ccc(C2CC(=O)C(C#N)=C(c3ccccc3)NN2C)cc1 (stereo not given)
OVCAR-4
  GI50: 31.6 µM (inactive)
SK-OV-3
  GI50: 12 µM (inactive)
SNB-75
  GI50: 2.05 µM (inactive)
SNB-78
  GI50: 50.4 µM (inactive)
SF-295
  GI50: 4.2 µM (inactive)
NCI-H460
  GI50: 5.52 µM (inactive)
CAKI-1
  GI50: 9.82 µM (inactive)
A549
  GI50: 8.04 µM (inactive)
HOP-62
  GI50: 12.8 µM (inactive)
NCI-H226
  GI50: 37.4 µM (inactive)
A498
  GI50: 27.6 µM (inactive)
MOLT-4
  GI50: 8.47 µM (inactive)
U-251
  GI50: 15.5 µM (inactive)
UACC-257
  GI50: 6.76 µM (inactive)
RXF 393
  GI50: 25.2 µM (inactive)
RPMI-8226
  GI50: 13.9 µM (inactive)
HL-60
  GI50: 3.13 µM (inactive)
M14
  GI50: 5.04 µM (inactive)
NCI-H23
  GI50: 32.4 µM (inactive)
SNB-19
  GI50: 12.1 µM (inactive)
DMS-114
  GI50: 30.3 µM (inactive)
RXF 631
  GI50: 44.7 µM (inactive)
HOP-18
  GI50: 96.6 µM (inactive)
SF-268
  GI50: 17.2 µM (inactive)
HT-29
  GI50: 5.14 µM (inactive)
HCT-116
  GI50: 11.5 µM (inactive)
SK-MEL-5
  GI50: 3.54 µM (inactive)
KM12
  GI50: 6.04 µM (inactive)
SK-MEL-28
  GI50: > 100 µM (inactive)
OVCAR-5
  GI50: > 100 µM (inactive)
ACHN
  GI50: 11.4 µM (inactive)
HOP-92
  GI50: 21.1 µM (inactive)
HCT-15
  GI50: 4.33 µM
786-0
  GI50: 8.73 µM (inactive)
SN12C
  GI50: 13.6 µM (inactive)
SR
  GI50: 14.1 µM (inactive)
SK-MEL-2
  GI50: 6.05 µM (inactive)
Malme-3M
  GI50: 5.65 µM (inactive)
LXFL 529
  GI50: 8.28 µM (inactive)
HCC 2998
  GI50: 22.1 µM (inactive)
DLD-1
  GI50: 5.25 µM (inactive)
LOX IMVI
  GI50: 4.93 µM (inactive)
TK-10
  GI50: > 100 µM (inactive)
XF498
  GI50: 4.55 µM (inactive)
SW-620
  GI50: 3.97 µM (inactive)
NCI-H522
  GI50: 3.56 µM (inactive)

## Cc1cc(C)c([O-])c(-[n+]2c(-c3ccccc3)cc(-c3ccccc3)cc2-c2ccccc2)c1
OVCAR-4
  GI50: 4.28 µM (inactive)
SK-OV-3
  GI50: 13.7 µM (inactive)
SNB-75
  GI50: 6.18 µM (inactive)
SNB-78
  GI50: 6.24 µM (inactive)
SF-295
  GI50: 4.98 µM (inactive)
SF-539
  GI50: 11.2 µM (inactive)
KM-20L2
  GI50: 2.65 µM (inactive)
NCI-H460
  GI50: 4.48 µM (inactive)
CAKI-1
  GI50: 9.27 µM (inactive)
A549
  GI50: 12.6 µM (inactive)
HOP-62
  GI50: 10.1 µM (inactive)
NCI-H226
  GI50: 10.1 µM (inactive)
MOLT-4
  GI50: 2.67 µM (inactive)
U-251
  GI50: 3.38 µM (inactive)
K562
  GI50: 3.21 µM (inactive)
UO-31
  GI50: 18.9 µM (inactive)
UACC-257
  GI50: 2.94 µM (inactive)
EKVX
  GI50: 8.07 µM (inactive)
RXF 393
  GI50: 6.73 µM (inactive)
RPMI-8226
  GI50: 2.79 µM (inactive)
IGROV-1
  GI50: 4.04 µM (inactive)
HL-60
  GI50: 1.62 µM (inactive)
M14
  GI50: 5.57 µM (inactive)
NCI-H23
  GI50: 3.53 µM (inactive)
SNB-19
  GI50: 8.89 µM (inactive)
DMS-114
  GI50: 3.05 µM (inactive)
RXF 631
  GI50: 10.2 µM (inactive)
COLO 205
  GI50: 3.22 µM (inactive)
HOP-18
  GI50: 5.31 µM (inactive)
SF-268
  GI50: 7.82 µM (inactive)
HT-29
  GI50: 2.98 µM (inactive)
HCT-116
  GI50: 1.63 µM (inactive)
SK-MEL-5
  GI50: 1.94 µM (inactive)
KM12
  GI50: 3.21 µM (inactive)
SK-MEL-28
  GI50: 4.81 µM (inactive)
OVCAR-5
  GI50: 4.49 µM (inactive)
ACHN
  GI50: 5.13 µM (inactive)
HOP-92
  GI50: 1.73 µM (inactive)
HCT-15
  GI50: 11.9 µM
786-0
  GI50: 6.78 µM (inactive)
SN12C
  GI50: 5.09 µM (inactive)
CCRF-CEM
  GI50: 1.73 µM (inactive)
SR
  GI50: 2.6 µM (inactive)
DMS-273
  GI50: 3.24 µM (inactive)
SK-MEL-2
  GI50: 2.88 µM (inactive)
Malme-3M
  GI50: 4.28 µM (inactive)
LXFL 529
  GI50: 2.35 µM (inactive)
HCC 2998
  GI50: 3.51 µM (inactive)
DLD-1
  GI50: 5.19 µM (inactive)
LOX IMVI
  GI50: 1.72 µM (inactive)
UACC-62
  GI50: 3.34 µM (inactive)
OVCAR-3
  GI50: 3.67 µM (inactive)
M19-MEL
  GI50: 3.88 µM (inactive)
TK-10
  GI50: 6.22 µM (inactive)
OVCAR-8
  GI50: 4.33 µM (inactive)
XF498
  GI50: 2.15 µM (inactive)
SW-620
  GI50: 4.1 µM (inactive)

## COc1cc2c(cc1C)[n+]([O-])c(C)c(C(=O)C/C(=N/NC(=O)C[N+](C)(C)C)C(=O)Nc1cccc(Cl)c1C)[n+]2[O-]
OVCAR-4
  GI50: > 100 µM (inactive)
SNB-75
  GI50: > 100 µM (inactive)
SNB-78
  GI50: > 100 µM (inactive)
SF-295
  GI50: > 100 µM (inactive)
SF-539
  GI50: > 100 µM (inactive)
KM-20L2
  GI50: > 100 µM (inactive)
NCI-H460
  GI50: > 100 µM (inactive)
CAKI-1
  GI50: > 100 µM (inactive)
A549
  GI50: > 100 µM (inactive)
HOP-62
  GI50: > 100 µM (inactive)
NCI-H226
  GI50: > 100 µM (inactive)
A498
  GI50: > 100 µM (inactive)
MOLT-4
  GI50: > 100 µM (inactive)
U-251
  GI50: > 100 µM (inactive)
K562
  GI50: > 100 µM (inactive)
UO-31
  GI50: > 100 µM (inactive)
UACC-257
  GI50: > 100 µM (inactive)
EKVX
  GI50: > 100 µM (inactive)
RXF 393
  GI50: > 100 µM (inactive)
RPMI-8226
  GI50: > 100 µM (inactive)
IGROV-1
  GI50: > 100 µM (inactive)
HL-60
  GI50: > 100 µM (inactive)
M14
  GI50: > 100 µM (inactive)
NCI-H23
  GI50: > 100 µM (inactive)
SNB-19
  GI50: > 100 µM (inactive)
DMS-114
  GI50: > 100 µM (inactive)
RXF 631
  GI50: > 100 µM (inactive)
COLO 205
  GI50: > 100 µM (inactive)
HOP-18
  GI50: > 100 µM (inactive)
SF-268
  GI50: > 100 µM (inactive)
HT-29
  GI50: > 100 µM (inactive)
HCT-116
  GI50: > 100 µM (inactive)
SK-MEL-5
  GI50: > 100 µM (inactive)
KM12
  GI50: > 100 µM (inactive)
SK-MEL-28
  GI50: > 100 µM (inactive)
OVCAR-5
  GI50: > 100 µM (inactive)
ACHN
  GI50: > 100 µM (inactive)
HOP-92
  GI50: > 100 µM (inactive)
HCT-15
  GI50: > 100 µM
786-0
  GI50: > 100 µM (inactive)
SN12C
  GI50: > 100 µM (inactive)
CCRF-CEM
  GI50: 49.9 µM (inactive)
SR
  GI50: > 100 µM (inactive)
DMS-273
  GI50: > 100 µM (inactive)
SK-MEL-2
  GI50: > 100 µM (inactive)
Malme-3M
  GI50: > 100 µM (inactive)
LXFL 529
  GI50: > 100 µM (inactive)
HCC 2998
  GI50: > 100 µM (inactive)
DLD-1
  GI50: > 100 µM (inactive)
LOX IMVI
  GI50: > 100 µM (inactive)
UACC-62
  GI50: > 100 µM (inactive)
OVCAR-3
  GI50: > 100 µM (inactive)
TK-10
  GI50: > 100 µM (inactive)
OVCAR-8
  GI50: > 100 µM (inactive)
XF498
  GI50: > 100 µM (inactive)
SW-620
  GI50: > 100 µM (inactive)
NCI-H522
  GI50: > 100 µM (inactive)
